Data reported in PubChem BioAssay (NCI).
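Dose response: 5 concentrations. Exposure: 48 h. Format: 96-well plates. Endpoint: linear interpolation; highest concentration if not reached. GI50 = concentration required for 50% inhibition of growth. TGI denotes the concentration required for complete inhibition of growth.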

How the values were obtained:
Assay in all cases: growth of human tumour cells (NCI), 48 h
[1] = system: NCI-H460 lung
[2] = system: EKVX NSCLC
[3] = system: U251 CNS
[4] = system: CCRF-CEM leukemia
[5] = system: NCI-H522 lung
[6] = system: LOX IMVI melanoma
[7] = system: K-562 leukemia
[8] = system: ACHN renal
[9] = system: HCT-15 colon
[10] = system: HS 578T breast

Row | Compound | TGI [1] [µM] | TGI [2] [µM] | TGI [3] [µM] | TGI [4] [µM] | TGI [5] [µM] | TGI [6] [µM] | TGI [7] [µM] | GI50 [2] [µM] | GI50 [8] [nM] | TGI [8] [µM] | GI50 [9] [µM] | TGI [9] [µM] | GI50 [4] [µM] | GI50 [5] [nM] | GI50 [6] [nM] | TGI [10] [µM] | GI50 [1] [µM] | GI50 [3] [nM] | GI50 [7] [µM] | GI50 [10] [µM]
1 | CCOC(=O)c1nc(-c2ccccc2)oc1OCC | > 100 | 38.6 | > 100 | > 100 | > 100 | > 100 | > 100 |  |  |  |  |  |  |  |  |  |  |  |  | 
2 | C/C=C/C=C/CCCCCCCCCCCCCC1(OC)C=CC(CC(=O)OC)OO1 (stereo not drawn) | 29.4 | 17.5 | 31.2 | 5.8 | 3.09 | 3.9 | > 50.1 | 5.69 | 6000 | 16.7 | 3.08 | 11.2 | 2.44 | 1580 | 2020 |  |  |  |  | 
3 | CCOC(=O)C1=C(Nc2cccc3ccccc23)OC/C1=N\NC(=O)c1ccccc1O | > 71.4 | > 82.7 | > 100 | 37.1 | 24.8 | > 72.5 | > 100 |  |  | > 100 |  | > 100 |  |  |  |  |  |  |  | 
4 | O=C(CCc1cc(-c2ccccc2)nc(=S)[nH]1)Nc1ccccc1[N+](=O)[O-] | > 100 | > 100 | > 100 | > 100 | > 100 | > 100 | > 100 |  |  | > 100 |  | > 100 |  |  |  |  |  |  |  | 
5 | S=C(Nc1cc(Cl)c(Cl)cc1Cl)SCc1ccccc1 | > 100 | > 100 | 52.7 |  | 59.5 |  | 45.1 |  |  | 42.7 |  | 32.6 |  |  |  | > 100 |  |  |  | 
6 | CCC1CCc2c(OC)ccc(OCC(=O)O)c2C1=O (stereo not drawn) |  | > 100 | > 100 | > 100 | > 100 | > 100 | > 100 |  |  | > 100 |  | > 100 |  |  |  |  |  |  |  | 
7 | COc1cc(C)c(O)c(C(=O)O)c1 | > 100 |  | > 100 | > 100 | > 100 | > 100 | > 100 |  |  | > 100 |  | > 100 |  |  |  |  |  |  |  | 
8 | Cc1[nH]c2ccccc2c1CCNCc1ccc(/C=C/C(=O)NO)cc1 | 0.838 | 1.5 | 0.0333 |  | 0.0324 | 0.03 | 0.0833 | 0.023 | 18.3 | 0.0714 | 0.0676 | 12.9 |  | < 10 | 12.8 | 0.0554 | < 0.01 | < 10.8 | < 0.01 | < 0.01
9 | CC1CCC(C(C)C)C(O[C@@H]2OC(=O)C[C@@H]2Sc2ccccc2)C1 (stereo partly drawn) | 69.5 | 93.6 |  | 26.8 |  | 26.3 | 42.6 |  |  | 41.7 |  | 59.5 |  |  |  |  |  |  |  | 
10 | O=C1c2ccccc2CC1C1(O)C(=O)Nc2ccccc21 (stereo not drawn) | > 100 | > 100 |  |  | > 100 | > 100 | > 100 |  |  | > 100 |  | > 100 |  |  |  |  |  |  |  | 
11 | CC(=O)Nc1ccc(/C=C/C(=O)c2sc(-c3nc(C)c(C(=O)/C=C/c4ccc(NC(C)=O)cc4)s3)nc2C)cc1 | > 100 | > 100 | > 100 | > 100 | > 100 | > 100 | > 100 |  |  | > 100 |  | > 100 |  |  |  |  |  |  |  | 
12 | Nc1cc(N)c2nc(-c3ccccc3)c(NCc3ccc(F)cc3)nc2c1 | 25.6 | 4.07 | 3.16 |  | > 100 | 3.17 | > 100 | 1.89 | 1710 | 3.11 | 3.34 | 19.1 |  | > 100000 | 1520 | > 100 | 4.05 | 1600 | 4.39 | 4.86
13 | COC(=O)C1=C(OC(=O)c2ccc(Cl)cc2)C(C(=O)OC)[C@@]2(O)[C@@H](C(=O)OC)C(c3ccccc3Cl)C[C@@H]1[C@@H]2C(=O)OC (stereo partly drawn) | > 100 | > 100 | 27 | > 100 | 7.92 |  | > 100 | 6.17 | 3490 | > 100 | 3.04 | > 100 | 4.3 | 2770 |  | > 100 | 4.18 | 3400 | 6 | 3.79
14 | CC(=O)NC1CC2Oc3ccc(C)cc3C(C)(O2)C1O (stereo not drawn) | > 100 | > 100 | > 100 | > 100 | > 100 | > 100 | > 100 |  |  | > 100 |  | > 100 |  |  |  |  |  |  |  | 
15 | CCN(CC)c1ccc(C(=N)c2ccc(N(C)C)cc2)cc1 | 10.8 | 16.5 | 7.57 | 97.8 |  | 7.22 | 12.8 | 2.04 | 2340 | 12 | 0.17 | 7.93 | 1.96 |  | 1210 | 2.67 | 1.69 | 1330 | 0.127 | 0.19
16 | CS/C(=N\c1nccs1)NC(=O)c1cccc(Cl)c1 | > 100 | > 100 | > 100 | > 100 | > 100 | > 100 | > 100 |  |  | > 100 |  | > 100 |  |  |  |  |  |  |  | 
17 | COC(=O)c1cc(-c2cccn2C)c2c(c1C(=O)OC)c1ccccc1n2C | > 100 |  | > 100 |  | 80.9 | > 100 | > 100 |  |  | > 100 |  | > 100 |  |  |  |  |  |  |  | 
18 | COC(=O)C1=C(O)c2cc3c(cc2[C@H](c2cc(OC)c(OC)c(OC)c2)C1C(=O)OC)OCO3 (stereo partly drawn) | > 100 | > 100 | > 100 | > 100 |  | > 100 | > 100 |  |  | 58.1 |  | > 100 |  |  |  |  |  |  |  | 
19 | CCCOc1nc(SCCC)nc2c1cnn2-c1ccccc1 | > 100 | > 100 | > 100 | > 100 |  | > 100 | > 100 | 39.1 | > 100000 | > 100 | > 100 | > 100 | 56.7 |  | > 100000 | > 100 | > 100 | > 100000 | > 100 | > 100
20 | O=c1cc(N=Nc2ccc(O)cc2)[nH]c(=O)[nH]1 | > 100 | > 100 | > 100 |  | > 100 | > 100 | > 100 |  |  | > 100 |  | > 100 |  |  |  |  |  |  |  | 
